Patent US20100298141A1, “SUBSTITUTED PYRIDINE N-OXIDE HERBICIDES” (E. I. DU PONT DE NEMOURS AND COMPANY, priority 2007, published 2010)

How the values were obtained:
Russian thistle = assay: Test C pre-/postemergence test; format: in vivo, Salsola kali; conditions: for Plant response rating, Russian Thistle: scale 0 to 100 (0 no effect, 100 complete control)
Source text: Seeds of plant species selected from blackgrass (Alopecurus myosuroides), downy brome (Bromus tectorum), green foxtail (Setaria viridis), Italian ryegrass (Lolium multiflorum), wheat (Triticum aestivum), wild oat (Avena fatua), catchweed bedstraw (Galium aparine), Russian thistle (Salsola kali), […] (Cynodon dactylon), Surinam grass (Brachiaria decumbens), cocklebur (Xanthium strumarium), corn (Zea mays), crabgrass (Digitaria sanguinalis), woolly cupgrass (Eriochloa villosa), giant foxtail (Setaria faberii), Goosegrass (Eleusin indica), johnsongrass (Sorghum halepense), kochia (Kochia scoparia), lambsquarters (Chenopodium album), morningglory (Ipomoea coccinea), eastern black nightshade (Solanum ptycanthum), yellow nutsedge (Cyperus esculentus), pigweed (Amaranthus retroflexus), common ragweed (Ambrosia elation), soybean (Glycine max), common (oilseed) sunflower (Helianthus annuus), and velvetleaf (Abutilon theophrasti) were planted and treated preemergence with test chemicals formulated in a non-phytotoxic solvent mixture which included a surfactant. At the same time, plants selected from these crop and weed species and also winter barley (Hordeum vulgare), canarygrass (Phalaris minor), and chickweed (Stellaria media) were treated with postemergence applications of some of the test chemicals formulated in the same manner. Plants ranged in height from 2 to 18 cm (1- to 4-leaf stage) for postemergence treatments. […] At time of treatment, test pots were flooded to 3 cm above the soil surface, treated by application of test compounds directly to the paddy water, and then maintained at that water depth for the duration of the test. […] A dash (-) response means no test result.

green foxtail = assay: Test C pre-/postemergence test; format: in vivo, Setaria viridis; conditions: for Plant response rating, Foxtail, Green: scale 0 to 100 (0 no effect, 100 complete control)
Procedure, shortened: (§1)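 Compounds in a non-phytotoxic solvent with surfactant applied preemergence to seeded pots and, at the same time, postemergence to plants 2–18 cm tall (1- to 4-leaf stage). Paddy tests: pots flooded to 3 cm, compound applied into the water, depth held throughout.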

Italian ryegrass = assay: Test C pre-/postemergence test; format: in vivo, Lolium multiflorum; conditions: for Plant response rating, Ryegrass, Italian: scale 0 to 100 (0 no effect, 100 complete control)
Procedure, shortened: as §1

velvetleaf = assay: Test A pre-/postemergence greenhouse test; format: in vivo, Abutilon theophrasti; conditions: for Velvetleaf plant response rating: 0 to 100 scale; for Plant response rating, Velvetleaf: 0 to 100 scale where 0 is no effect and 100 is complete control
Procedure, shortened: (§2)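 Each test compound, dissolved in a non-phytotoxic solvent mixture with surfactant, was sprayed directly onto seeded soil (loam/sand blend) and, at the same moment, onto seedlings carrying one to two leaves. Around ten greenhouse days later, plants were rated visually for injury relative to untreated controls.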

barnyardgrass = assay: Test A pre-/postemergence greenhouse test; format: in vivo, Echinochloa crus-galli; conditions: for Barnyardgrass plant response rating: 0 to 100 scale; for Plant response rating, Barnyardgrass: 0 to 100 scale where 0 is no effect and 100 is complete control
Procedure, shortened: as §2

[1] = 31 g ai/ha, Preemergence, scale 0 to 100
[2] = 62 g ai/ha, preemergence, scale 0 (no effect) to 100 (complete control)
[3] = preemergence, 125 g ai/ha, scale 0 (no effect) to 100 (complete control)
[4] = Postemergence, 125 g ai/ha, 0 is no effect, 100 is complete control
[5] = Postemergence, 500 g ai/ha, 0 is no effect, 100 is complete control
[6] = Preemergence, 125 g ai/ha, 0 no effect, 100 complete control
[7] = 62 g ai/ha, Preemergence, scale 0 to 100
[8] = 125 g ai/ha, preemergence, scale 0 (no effect) to 100 (complete control)
[9] = preemergence, 250 g ai/ha, scale 0 (no effect) to 100 (complete control)
[10] = Preemergence, 500 g ai/ha, 0 no effect, 100 complete control

Row | Structure (SMILES) | Velvetleaf plant response rating (velvetleaf; [4]) | Velvetleaf plant response rating (velvetleaf; [5]) | Velvetleaf plant response rating (velvetleaf; [6]) | Plant response rating, Velvetleaf (velvetleaf; Preemergence, 500 g ai/ha) | Barnyardgrass plant response rating (barnyardgrass; [4]) | Barnyardgrass plant response rating (barnyardgrass; [5]) | Barnyardgrass plant response rating (barnyardgrass; [6]) | Plant response rating, Barnyardgrass (barnyardgrass; Preemergence, 500 g ai/ha) | Russian Thistle plant response rating (Russian thistle; [7]) | Russian Thistle plant response rating (Russian thistle; [8]) | Plant response rating, Russian Thistle (Russian thistle; Preemergence, 31 g ai/ha) | Russian Thistle plant response rating (Russian thistle; [9]) | Foxtail, Green plant response rating (green foxtail; [7]) | Foxtail, Green plant response rating (green foxtail; [8]) | Plant response rating, Foxtail, Green (green foxtail; Preemergence, 31 g ai/ha) | Foxtail, Green plant response rating (green foxtail; [9]) | Ryegrass, Italian plant response rating (Italian ryegrass; [7]) | Ryegrass, Italian plant response rating (Italian ryegrass; [8]) | Plant response rating, Ryegrass, Italian (Italian ryegrass; Preemergence, 31 g ai/ha) | Ryegrass, Italian plant response rating (Italian ryegrass; [9]) | also measured
1 | Cn1nc(C(F)(F)F)c(C(Cl)S(=O)(=O)c2cccc[n+]2[O-])c1Cl (stereo not drawn) [Compound 12] | 0 | 0 | 0 | 0 | 50 | 60 | 90 | 90 | – | – | – | – | – | – | – | – | – | – | – | – | Russian Thistle plant response rating (Russian thistle; [1]): 100; Russian Thistle plant response rating (Russian thistle; [2]): 100; Plant response rating (0 to 100), Russian Thistle (Russian thistle; Preemergence, 250 g ai/ha): 100; Russian Thistle plant response rating (Russian thistle; [3]): 100; Foxtail, Green plant response rating (green foxtail; [1]): 100; Plant response rating (0 to 100), Foxtail, Green (green foxtail; Preemergence, 250 g ai/ha): 100; Foxtail, Green plant response rating (green foxtail; [3]): 100; Ryegrass, Italian plant response rating (Italian ryegrass; [1]): 0; Ryegrass, Italian plant response rating (Italian ryegrass; [2]): 70; Plant response rating (0 to 100), Ryegrass, Italian (Italian ryegrass; Preemergence, 250 g ai/ha): 85; Ryegrass, Italian plant response rating (Italian ryegrass; [3]): 70
2 | CCc1cc[n+]([O-])c(S(=O)(=O)Cc2c(C(F)(F)F)nn(C)c2OC(F)F)c1 [Compound 102] | – | 90 | 70 | – | – | 80 | 80 | – | 100 | 100 | 100 | 100 | 95 | 98 | 85 | 100 | 0 | 0 | 0 | 20 | Plant response rating, Velvetleaf (velvetleaf; Postemergence, 125 g ai/ha): 70; Velvetleaf plant response rating (velvetleaf; [10]): 100; Plant response rating, Barnyardgrass (barnyardgrass; Postemergence, 125 g ai/ha): 70; Barnyardgrass plant response rating (barnyardgrass; [10]): 100
3 | Cn1nc(C(F)(F)F)c(CS(=O)(=O)c2cc(C(C)(C)C)cc[n+]2[O-])c1OC(F)F [Compound 25] | 30 | 50 | 60 | 100 | 40 | 50 | 90 | 100 | 100 | – | 100 | – | 98 | – | 80 | – | 0 | – | 0 | – | Plant response rating (0 to 100), Foxtail, Green (green foxtail; Preemergence, 250 g ai/ha): 100
4 | C#CCOc1c(C[S+]([O-])c2cccc[n+]2[O-])c(C(F)(F)F)nn1C (stereo not drawn) [Compound 76] | – | 80 | 50 | 80 | – | 80 | 80 | 100 | 100 | 100 | 0 | 100 | 100 | 100 | 70 | 100 | 50 | 70 | 0 | 100 | Plant response rating, Velvetleaf (velvetleaf; Postemergence, 125 g ai/ha): 60; Plant response rating, Barnyardgrass (barnyardgrass; Postemergence, 125 g ai/ha): 70
5 | Cn1nc(C(F)(F)F)c(C[S+]([O-])c2cc(C(C)(C)C)cc[n+]2[O-])c1OC(F)F (racemic) [Compound 24] | 40 | 60 | 70 | 100 | 30 | 50 | 60 | 100 | 0 | – | – | – | 70 | – | 10 | – | 0 | – | 0 | – | Plant response rating (0 to 100), Foxtail, Green (green foxtail; Preemergence, 250 g ai/ha): 100
6 | Cc1cc[n+]([O-])c(S(=O)(=O)C(C)c2c(C(F)(F)F)nn(C)c2Cl)c1 (racemic) [Compound 14] | 0 | 60 | 0 | 60 | 30 | 60 | 80 | 100 | – | – | – | – | – | – | – | – | – | – | – | – | Russian Thistle plant response rating (Russian thistle; [1]): 80; Russian Thistle plant response rating (Russian thistle; [2]): 100; Plant response rating (0 to 100), Russian Thistle (Russian thistle; Preemergence, 250 g ai/ha): 100; Russian Thistle plant response rating (Russian thistle; [3]): 100; Foxtail, Green plant response rating (green foxtail; [1]): 90; Foxtail, Green plant response rating (green foxtail; [2]): 100; Plant response rating (0 to 100), Foxtail, Green (green foxtail; Preemergence, 250 g ai/ha): 100; Foxtail, Green plant response rating (green foxtail; [3]): 100; Ryegrass, Italian plant response rating (Italian ryegrass; [1]): 20; Ryegrass, Italian plant response rating (Italian ryegrass; [2]): 55; Plant response rating (0 to 100), Ryegrass, Italian (Italian ryegrass; Preemergence, 250 g ai/ha): 100; Ryegrass, Italian plant response rating (Italian ryegrass; [3]): 100
7 | Cn1nc(C(F)(F)F)c(C[S+]([O-])c2cc(Br)cc[n+]2[O-])c1Cl (racemic) [Compound 35] | 50 | 60 | 30 | 90 | 50 | 80 | 70 | 100 | 100 | 100 | 100 | 100 | 80 | 100 | 0 | 100 | 20 | 20 | 10 | 20 | –
8 | Cc1cc[n+]([O-])c(S(=O)(=O)Cc2c(C(F)(F)F)nn(C)c2OCC(F)F)c1 [Compound 94] | – | 70 | 10 | – | – | 90 | 70 | 100 | 100 | 100 | 100 | 100 | 100 | 100 | 98 | 100 | 70 | 90 | 0 | 98 | Plant response rating, Velvetleaf (velvetleaf; Postemergence, 125 g ai/ha): 10; Velvetleaf plant response rating (velvetleaf; [10]): 100; Plant response rating, Barnyardgrass (barnyardgrass; Postemergence, 125 g ai/ha): 60
9 | Cn1nc(C(F)(F)F)c(C[S+]([O-])c2cccc[n+]2[O-])c1OCC(F)F (stereo not drawn) [Compound 75] | – | 80 | 60 | 100 | – | 80 | 80 | 100 | 100 | 100 | 100 | 100 | 98 | 98 | 80 | 100 | 70 | 100 | 0 | 100 | Plant response rating, Velvetleaf (velvetleaf; Postemergence, 125 g ai/ha): 40; Plant response rating, Barnyardgrass (barnyardgrass; Postemergence, 125 g ai/ha): 60
